Measured values from the kinase profiling compilation of Christmann-Franck et al. (2016).

How the values were obtained:
Experiment in all cases: KINOMEscan competition binding
Settings in all cases: compound 10.0 µM
[1] = tested on: ABL1 (human), P00519 [E255K]
[2] = target: BTK (human) (UniProt Q06187)
[3] = target: DDR1 (human) (UniProt Q08345)
[4] = target: DYRK1A (human) (UniProt Q13627)
[5] = target: DYRK2 (human) (UniProt Q92630)
[6] = tested on: EGFR (human), P00533 [746-750 del]
[7] = tested on: EGFR (human), P00533 [G719S]
[8] = target: EPHB6 (human) (UniProt O15197)
EPHB6 (human), sequence (O15197 whole entry, looked up): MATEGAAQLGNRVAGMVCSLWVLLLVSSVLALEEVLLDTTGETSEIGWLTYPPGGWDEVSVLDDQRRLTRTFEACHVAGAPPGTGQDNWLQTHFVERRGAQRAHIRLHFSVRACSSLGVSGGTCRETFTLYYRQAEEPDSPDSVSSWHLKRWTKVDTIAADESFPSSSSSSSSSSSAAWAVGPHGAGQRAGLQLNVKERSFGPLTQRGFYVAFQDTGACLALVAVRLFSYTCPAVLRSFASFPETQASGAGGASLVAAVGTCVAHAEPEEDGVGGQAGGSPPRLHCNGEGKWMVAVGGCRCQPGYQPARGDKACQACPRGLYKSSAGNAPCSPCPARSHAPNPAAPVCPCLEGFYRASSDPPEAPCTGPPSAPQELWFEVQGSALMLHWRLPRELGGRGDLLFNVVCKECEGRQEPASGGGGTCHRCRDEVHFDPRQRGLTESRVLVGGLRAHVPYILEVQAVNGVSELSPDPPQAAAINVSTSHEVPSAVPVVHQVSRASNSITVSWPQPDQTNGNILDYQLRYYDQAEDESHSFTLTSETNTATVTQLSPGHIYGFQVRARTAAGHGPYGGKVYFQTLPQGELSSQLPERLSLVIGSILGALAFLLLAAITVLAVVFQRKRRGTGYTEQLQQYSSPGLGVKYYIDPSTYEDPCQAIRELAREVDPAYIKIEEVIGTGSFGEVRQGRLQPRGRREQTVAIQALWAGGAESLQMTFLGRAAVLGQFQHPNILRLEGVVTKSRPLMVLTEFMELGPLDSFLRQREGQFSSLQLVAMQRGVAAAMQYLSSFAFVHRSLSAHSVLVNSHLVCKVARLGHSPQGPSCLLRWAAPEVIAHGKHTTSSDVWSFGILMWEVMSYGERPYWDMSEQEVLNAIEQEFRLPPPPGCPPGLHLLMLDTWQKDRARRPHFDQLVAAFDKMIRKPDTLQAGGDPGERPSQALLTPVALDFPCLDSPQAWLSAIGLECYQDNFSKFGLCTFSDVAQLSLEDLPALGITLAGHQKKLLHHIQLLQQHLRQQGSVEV

[9] = target: ERN1 (human) (UniProt O75460)
[10] = tested on: FLT3 (human), P36888 [K663Q]
[11] = target: HIPK4 (human) (UniProt Q8NE63)
[12] = target: ICK (human) (UniProt Q9UPZ9)
[13] = target: KIT (human) (UniProt P10721)
KIT (human), sequence (P10721 whole entry, looked up): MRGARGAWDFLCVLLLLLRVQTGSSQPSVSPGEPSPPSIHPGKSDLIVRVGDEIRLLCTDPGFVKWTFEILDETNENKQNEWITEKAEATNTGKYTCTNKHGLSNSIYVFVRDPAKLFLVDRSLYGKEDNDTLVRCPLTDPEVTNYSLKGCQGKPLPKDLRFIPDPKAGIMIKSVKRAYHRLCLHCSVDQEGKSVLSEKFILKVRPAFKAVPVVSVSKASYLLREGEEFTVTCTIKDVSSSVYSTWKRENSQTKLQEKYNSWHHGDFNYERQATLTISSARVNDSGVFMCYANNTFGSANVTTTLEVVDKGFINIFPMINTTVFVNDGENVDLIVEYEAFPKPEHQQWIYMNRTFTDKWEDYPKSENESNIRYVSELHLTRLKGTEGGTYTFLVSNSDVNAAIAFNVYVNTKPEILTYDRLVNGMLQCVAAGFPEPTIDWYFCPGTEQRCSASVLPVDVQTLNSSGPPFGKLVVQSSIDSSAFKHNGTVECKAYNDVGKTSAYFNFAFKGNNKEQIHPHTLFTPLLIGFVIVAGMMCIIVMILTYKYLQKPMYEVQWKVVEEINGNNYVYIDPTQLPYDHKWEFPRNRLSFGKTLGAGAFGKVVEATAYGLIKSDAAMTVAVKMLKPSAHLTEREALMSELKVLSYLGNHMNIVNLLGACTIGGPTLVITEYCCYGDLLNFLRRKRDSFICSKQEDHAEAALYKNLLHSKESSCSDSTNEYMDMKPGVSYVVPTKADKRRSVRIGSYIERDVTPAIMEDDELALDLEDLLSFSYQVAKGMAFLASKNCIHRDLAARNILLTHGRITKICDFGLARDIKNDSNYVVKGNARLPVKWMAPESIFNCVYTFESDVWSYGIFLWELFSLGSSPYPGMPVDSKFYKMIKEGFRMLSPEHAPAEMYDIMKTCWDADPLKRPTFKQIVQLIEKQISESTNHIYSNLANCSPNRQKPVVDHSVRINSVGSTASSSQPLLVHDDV

[14] = target: MAP3K2 (human) (UniProt Q9Y2U5)
[15] = target: MAP3K6 (human) (UniProt O95382)
[16] = target: MATK (human) (UniProt P42679)
[17] = target: MET (human) (UniProt P08581)
[18] = target: MYLK3 (human) (UniProt Q32MK0)
MYLK3 (human), sequence (Q32MK0 whole entry, looked up): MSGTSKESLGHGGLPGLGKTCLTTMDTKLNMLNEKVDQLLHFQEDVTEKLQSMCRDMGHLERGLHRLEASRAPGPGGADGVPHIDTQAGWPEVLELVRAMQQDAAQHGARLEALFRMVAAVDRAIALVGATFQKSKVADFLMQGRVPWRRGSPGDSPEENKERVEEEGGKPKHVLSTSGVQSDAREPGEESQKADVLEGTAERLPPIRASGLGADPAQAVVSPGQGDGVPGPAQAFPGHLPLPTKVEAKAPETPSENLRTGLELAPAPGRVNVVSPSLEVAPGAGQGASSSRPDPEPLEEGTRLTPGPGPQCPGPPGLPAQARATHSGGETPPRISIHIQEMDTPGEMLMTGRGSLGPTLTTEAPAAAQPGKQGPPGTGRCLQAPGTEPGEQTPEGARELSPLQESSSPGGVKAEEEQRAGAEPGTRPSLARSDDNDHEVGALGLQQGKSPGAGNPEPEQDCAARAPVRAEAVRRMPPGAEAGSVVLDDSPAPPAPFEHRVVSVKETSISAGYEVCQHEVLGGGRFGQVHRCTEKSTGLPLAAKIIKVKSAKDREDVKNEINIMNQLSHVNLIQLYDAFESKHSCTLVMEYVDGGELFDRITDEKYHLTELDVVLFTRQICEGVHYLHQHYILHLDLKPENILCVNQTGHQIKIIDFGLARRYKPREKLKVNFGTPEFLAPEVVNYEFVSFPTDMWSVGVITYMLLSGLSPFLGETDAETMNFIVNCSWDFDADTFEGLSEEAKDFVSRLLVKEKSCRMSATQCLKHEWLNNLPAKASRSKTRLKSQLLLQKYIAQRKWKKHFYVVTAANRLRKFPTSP

[19] = target: NIM1 (human) (UniProt Q8IY84)
NIM1 (human), sequence (Q8IY84 whole entry, looked up): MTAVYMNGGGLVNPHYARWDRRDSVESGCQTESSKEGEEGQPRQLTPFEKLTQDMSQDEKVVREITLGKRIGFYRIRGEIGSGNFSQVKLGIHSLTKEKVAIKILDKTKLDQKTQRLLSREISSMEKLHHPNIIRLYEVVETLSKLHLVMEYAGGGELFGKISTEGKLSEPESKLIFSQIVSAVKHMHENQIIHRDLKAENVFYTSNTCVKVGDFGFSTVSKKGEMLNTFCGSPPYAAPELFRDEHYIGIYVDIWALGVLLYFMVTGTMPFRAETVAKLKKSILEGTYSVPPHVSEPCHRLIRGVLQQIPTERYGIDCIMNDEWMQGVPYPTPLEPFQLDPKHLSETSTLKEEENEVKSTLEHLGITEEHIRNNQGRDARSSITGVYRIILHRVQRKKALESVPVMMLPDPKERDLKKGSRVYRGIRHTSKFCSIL

[20] = target: PI4KB (human) (UniProt Q9UBF8)
[21] = tested on: PIK3CA (human), P42336 [C420R]
[22] = tested on: PIK3CA (human), P42336 [E545A]
[23] = target: PIK3CG (human) (UniProt P48736)
[24] = target: ROCK1 (human) (UniProt Q13464)
[25] = target: SIK3 (human) (UniProt Q9Y2K2)
[26] = target: TBK1 (human) (UniProt Q9UHD2)
[27] = target: BRAF (human) (UniProt P15056)
[28] = target: CDK13 (human) (UniProt Q14004)
[29] = target: CDK4 CCND1 (human) (UniProt P11802+P24385)
[30] = target: CDK4 CCND3 (human) (UniProt P11802+P30281)
[31] = target: CDKL1 (human) (UniProt Q00532)
[32] = target: LRRK2 (human) (UniProt Q5S007)
[33] = target: MAP2K7 (human) (UniProt O14733)
[34] = target: NEK3 (human) (UniProt P51956)
[35] = target: NEK4 (human) (UniProt P51957)
[36] = target: PIP4K2C (human) (UniProt Q8TBX8)
[37] = target: PKN3 (M.tuberculosis) (UniProt Q6P5Z2)
[38] = target: PRKCI (human) (UniProt P41743)
[39] = target: TRPM6 (human) (UniProt Q9BX84)

DDR1 (human), sequence (Q08345 whole entry, looked up): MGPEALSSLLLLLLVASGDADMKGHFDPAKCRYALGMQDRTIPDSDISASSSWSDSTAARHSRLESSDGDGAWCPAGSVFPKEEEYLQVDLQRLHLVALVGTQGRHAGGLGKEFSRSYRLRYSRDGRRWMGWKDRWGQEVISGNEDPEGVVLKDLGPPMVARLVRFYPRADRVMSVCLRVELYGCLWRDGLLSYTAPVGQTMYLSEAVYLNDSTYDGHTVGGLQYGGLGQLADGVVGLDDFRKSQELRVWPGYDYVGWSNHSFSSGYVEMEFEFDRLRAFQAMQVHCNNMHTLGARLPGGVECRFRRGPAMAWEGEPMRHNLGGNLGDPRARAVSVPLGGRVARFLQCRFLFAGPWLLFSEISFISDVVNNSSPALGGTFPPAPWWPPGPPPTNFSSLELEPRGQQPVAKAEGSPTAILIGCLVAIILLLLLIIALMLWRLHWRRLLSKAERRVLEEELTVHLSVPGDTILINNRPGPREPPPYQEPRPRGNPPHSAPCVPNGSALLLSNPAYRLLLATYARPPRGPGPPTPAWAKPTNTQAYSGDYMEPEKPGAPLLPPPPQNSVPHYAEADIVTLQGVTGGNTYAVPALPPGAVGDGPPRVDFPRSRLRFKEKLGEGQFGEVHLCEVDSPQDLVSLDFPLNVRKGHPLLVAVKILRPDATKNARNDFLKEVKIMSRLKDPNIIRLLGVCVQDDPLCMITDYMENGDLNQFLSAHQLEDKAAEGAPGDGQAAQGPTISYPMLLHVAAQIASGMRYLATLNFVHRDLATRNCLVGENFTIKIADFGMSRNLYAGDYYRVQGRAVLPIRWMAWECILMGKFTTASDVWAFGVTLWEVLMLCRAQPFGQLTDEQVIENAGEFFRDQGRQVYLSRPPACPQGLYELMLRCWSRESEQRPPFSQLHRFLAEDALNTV
DYRK2 (human), sequence (Q92630 whole entry, looked up): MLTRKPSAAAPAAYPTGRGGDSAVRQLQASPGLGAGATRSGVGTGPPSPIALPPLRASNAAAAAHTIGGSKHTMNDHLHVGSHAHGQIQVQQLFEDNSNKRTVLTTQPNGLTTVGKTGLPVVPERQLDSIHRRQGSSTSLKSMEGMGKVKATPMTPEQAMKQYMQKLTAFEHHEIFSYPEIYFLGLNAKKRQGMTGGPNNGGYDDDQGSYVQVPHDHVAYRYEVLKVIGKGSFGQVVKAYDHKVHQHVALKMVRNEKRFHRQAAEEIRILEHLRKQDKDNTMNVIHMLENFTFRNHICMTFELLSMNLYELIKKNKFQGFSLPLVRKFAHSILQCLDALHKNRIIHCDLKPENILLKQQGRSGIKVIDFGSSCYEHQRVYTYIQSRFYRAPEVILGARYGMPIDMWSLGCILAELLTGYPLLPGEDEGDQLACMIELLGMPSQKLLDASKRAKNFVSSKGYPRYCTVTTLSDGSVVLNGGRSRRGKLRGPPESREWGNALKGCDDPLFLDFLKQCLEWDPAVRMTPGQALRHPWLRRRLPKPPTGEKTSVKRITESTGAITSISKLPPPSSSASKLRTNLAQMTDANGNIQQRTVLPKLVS

| Compound | kinase still bound, per cent of control [1] | kinase still bound, per cent of control [2] | kinase still bound, per cent of control [3] | kinase still bound, per cent of control [4] | kinase still bound, per cent of control [5] | kinase still bound, per cent of control [6] | kinase still bound, per cent of control [7] | kinase still bound, per cent of control [8] | kinase still bound, per cent of control [9] | kinase still bound, per cent of control [10] | kinase still bound, per cent of control [11] | kinase still bound, per cent of control [12] | kinase still bound, per cent of control [13] | kinase still bound, per cent of control [14] | kinase still bound, per cent of control [15] | kinase still bound, per cent of control [16] | kinase still bound, per cent of control [17] | kinase still bound, per cent of control [18] | kinase still bound, per cent of control [23] | kinase still bound, per cent of control [27] | other results |
| --- | --- | --- | --- | --- | --- | --- | --- | --- | --- | --- | --- | --- | --- | --- | --- | --- | --- | --- | --- | --- | --- |
| COc1cc(C(=O)NC2CCN(C)CC2)ccc1Nc1ncc2c(n1)N(C1CCCC1)CCC(=O)N2C(C)C | 100% | 100% | 100% | 100% | 100% | 100% | 100% | 100% | 100% | 100% | 100% | 100% | 100% | 100% | 100% | 100% | 100% | 100% | 100% |  | kinase still bound, per cent of control [19]: 100%; kinase still bound, per cent of control [20]: 100%; kinase still bound, per cent of control [21]: 100%; kinase still bound, per cent of control [22]: 100%; kinase still bound, per cent of control [24]: 100%; kinase still bound, per cent of control [25]: 100%; kinase still bound, per cent of control [26]: 100% |
| CC[C@@H]1C(=O)N(C)c2cnc(Nc3ccc(C(=O)NC4CCN(C)CC4)cc3OC)nc2N1C1CCCC1 | 100% |  | 100% |  |  |  |  |  |  | 100% |  |  | 100% |  |  |  |  |  | 100% | 100% |  |
| COc1cc(C(=O)NC2CCN(C)CC2)ccc1Nc1ncc2c(n1)N(C1CCCC1)C(C)CC(=O)N2C (centres undefined) | 100% | 100% | 100% |  |  | 100% | 100% |  |  | 100% |  |  | 100% |  |  |  | 100% | 100% | 100% |  |  |
| Nc1ccc(-c2ccc3ncc4ccc(=O)n(-c5cccc(C(F)(F)F)c5)c4c3c2)cn1 | 76% | 100% | 100% | 75% | 88% | 92% | 88% | 82% | 100% | 18% | 44% | 79% | 55% | 78% | 100% | 100% | 100% | 100% |  | 73% | kinase still bound, per cent of control [28]: 100%; kinase still bound, per cent of control [29]: 100%; kinase still bound, per cent of control [30]: 90%; kinase still bound, per cent of control [31]: 97%; kinase still bound, per cent of control [32]: 80%; kinase still bound, per cent of control [33]: 100%; kinase still bound, per cent of control [34]: 95%; kinase still bound, per cent of control [35]: 100%; kinase still bound, per cent of control [19]: 100%; kinase still bound, per cent of control [36]: 21%; kinase still bound, per cent of control [37]: 63%; kinase still bound, per cent of control [38]: 100%; kinase still bound, per cent of control [24]: 79%; kinase still bound, per cent of control [25]: 79%; kinase still bound, per cent of control [26]: 100%; kinase still bound, per cent of control [39]: 71% |
| OCCCNc1cc(-c2ccnc(Nc3cccc(Cl)c3)n2)ccn1 | 100% | 100% | 100% | 7.8% | 100% | 100% | 100% | 100% | 100% | 100% | 14% | 2.2% | 100% | 100% | 100% | 100% | 100% | 100% | 100% | 100% | kinase still bound, per cent of control [19]: 100%; kinase still bound, per cent of control [20]: 100%; kinase still bound, per cent of control [21]: 100%; kinase still bound, per cent of control [22]: 100%; kinase still bound, per cent of control [24]: 100%; kinase still bound, per cent of control [25]: 100%; kinase still bound, per cent of control [26]: 100% |
| Cc1ccc(C(=O)Nc2cccc(C(F)(F)F)c2)cc1Nc1cncc(C(N)=O)c1 | 100% | 100% | 0.1% |  |  | 100% | 100% |  |  | 100% |  |  | 0% |  |  |  | 100% | 100% | 100% | 2% |  |
| Cn1c(=O)n(-c2ccc(C(C)(C)C#N)cc2)c2c3cc(-c4cnc5ccccc5c4)ccc3ncc21 | 100% |  | 100% | 100% | 100% | 100% | 100% | 100% | 100% | 100% | 100% | 100% | 100% | 100% | 100% | 100% |  | 100% | 23% | 100% | kinase still bound, per cent of control [19]: 100%; kinase still bound, per cent of control [20]: 100%; kinase still bound, per cent of control [24]: 100%; kinase still bound, per cent of control [25]: 100%; kinase still bound, per cent of control [26]: 100% |
| C=CC(=O)Nc1cccc(Oc2nc(Nc3ccc(N4CCN(C)CC4)cc3OC)ncc2Cl)c1 | 100% | 0.1% | 100% |  |  | 0.2% | 0.3% |  |  | 1.1% |  |  | 34% |  |  |  | 20% | 100% | 100% | 100% |  |
